pIC50: −log10 of the molar value. Calls of active or inactive are those of the source. No cut-off for these calls is given here.
What was measured:
[1] = biological target: T1, Protein cereblon/Mitogen-activated protein kinase kinase kinase kinase 1 (Homo sapiens, UniProt Q92918+Q96SW2); assay: PROTAC activity at CRBN/HPK1 in human Jurkat cells assessed as degradation of HPK1 protein incubated for 24 hrs by Western blotting analysis; format: cell-based
Target sequence in this assay (Q92918 whole entry): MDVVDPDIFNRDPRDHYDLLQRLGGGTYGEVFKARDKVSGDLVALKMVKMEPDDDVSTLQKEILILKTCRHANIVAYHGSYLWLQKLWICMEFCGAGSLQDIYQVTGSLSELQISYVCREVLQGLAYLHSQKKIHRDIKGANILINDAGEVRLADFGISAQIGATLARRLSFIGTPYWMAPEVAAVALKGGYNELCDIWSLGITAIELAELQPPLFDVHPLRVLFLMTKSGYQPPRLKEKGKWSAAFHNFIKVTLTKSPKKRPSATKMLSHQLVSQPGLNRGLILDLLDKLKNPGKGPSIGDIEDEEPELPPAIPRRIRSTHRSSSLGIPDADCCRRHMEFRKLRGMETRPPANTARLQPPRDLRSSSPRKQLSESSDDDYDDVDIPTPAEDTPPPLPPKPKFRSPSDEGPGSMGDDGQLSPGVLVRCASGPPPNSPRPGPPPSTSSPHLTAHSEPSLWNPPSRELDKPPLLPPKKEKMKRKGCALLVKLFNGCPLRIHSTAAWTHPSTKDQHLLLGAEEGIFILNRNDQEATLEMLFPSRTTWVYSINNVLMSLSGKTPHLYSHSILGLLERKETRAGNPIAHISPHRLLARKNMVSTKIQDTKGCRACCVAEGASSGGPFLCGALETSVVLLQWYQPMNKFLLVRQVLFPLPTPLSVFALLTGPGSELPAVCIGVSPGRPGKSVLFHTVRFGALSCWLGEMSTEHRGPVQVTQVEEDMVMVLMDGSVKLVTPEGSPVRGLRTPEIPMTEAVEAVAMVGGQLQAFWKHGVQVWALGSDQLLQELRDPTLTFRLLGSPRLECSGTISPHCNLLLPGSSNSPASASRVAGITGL
Target sequence in this assay (Q96SW2 whole entry): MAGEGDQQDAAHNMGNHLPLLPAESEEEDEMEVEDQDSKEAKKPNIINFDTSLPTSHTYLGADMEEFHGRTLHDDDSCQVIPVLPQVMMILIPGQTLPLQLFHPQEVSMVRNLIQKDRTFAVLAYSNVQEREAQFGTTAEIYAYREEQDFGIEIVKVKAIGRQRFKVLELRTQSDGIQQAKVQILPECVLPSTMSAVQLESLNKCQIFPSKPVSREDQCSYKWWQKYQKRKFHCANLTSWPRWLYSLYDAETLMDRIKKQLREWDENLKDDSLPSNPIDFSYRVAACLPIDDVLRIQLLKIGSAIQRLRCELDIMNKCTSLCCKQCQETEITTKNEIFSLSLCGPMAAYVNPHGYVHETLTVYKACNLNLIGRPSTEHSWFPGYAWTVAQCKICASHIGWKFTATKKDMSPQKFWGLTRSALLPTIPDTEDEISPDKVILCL

[2] = biological target: T1, Protein cereblon/Mitogen-activated protein kinase kinase kinase kinase 1; assay: PROTAC activity at CRBN/HPK1 in human Jurkat cells assessed as maximal degradation of HPK1 protein incubated for 24 hrs by Western blotting analysis relative to control; format: cell-based
Target sequence in this assay (Q92918 whole entry, looked up): as the sequence (Q92918 whole entry) above
Target sequence in this assay (Q96SW2 whole entry, looked up): as the sequence (Q96SW2 whole entry) above

[3] = Half life in Sprague-Dawley rat at 10 mg/kg,po measured upto 24 hrs by LC-MS analysis; format: ADME, organism-based; conditions: in vivo
[4] = Tmax in Sprague-Dawley rat at 10 mg/kg,po measured upto 24 hrs by LC-MS analysis; format: ADME, organism-based; conditions: in vivo
[5] = Cmax in Sprague-Dawley rat at 10 mg/kg,po measured upto 24 hrs by LC-MS analysis; format: ADME, organism-based; conditions: in vivo
[6] = AUC (0 to t) in Sprague-Dawley rat at 10 mg/kg,po measured upto 24 hrs by LC-MS analysis; format: ADME, organism-based; conditions: in vivo
[7] = MRT in Sprague-Dawley rat at 10 mg/kg,po measured upto 24 hrs by LC-MS analysis; format: ADME, organism-based; conditions: in vivo
[8] = biological target: T1, Protein cereblon/Mitogen-activated protein kinase kinase kinase kinase 1; assay: PROTAC activity at CRBN/HPK1 in human Jurkat cells assessed as maximal degradation of HPK1 protein incubated for 24 hrs by Nano-Glo luminescence assay relative to control; format: cell-based
Target sequence in this assay (Q92918 whole entry, looked up): as the sequence (Q92918 whole entry) above
Target sequence in this assay (Q96SW2 whole entry, looked up): as the sequence (Q96SW2 whole entry) above

T-cell line = assay: Immunostimulatory activity in human T cell assessed as increase in IL-2 secretion at 10 uM relative to control; format: functional
Jurkat [9] = assay: Antiproliferative activity against human Jurkat cells assessed as inhibition of cell growth at 2 uM incubated for 3 days by CCK-8 assay; format: functional, cell-based; conditions: time 3.0 day
Jurkat [10] = assay: Antiproliferative activity against human Jurkat cells assessed as inhibition of cell growth at 10 uM incubated for 3 days by CCK-8 assay; format: functional, cell-based; conditions: time 3.0 day
[11] = biological target: Mitogen-activated protein kinase kinase kinase kinase 1 (Homo sapiens, UniProt Q92918); assay: Inhibition of HPK1 (unknown origin)
CT26 = assay: Antitumor activity against mouse CT26 cells implanted BALB/c mouse model assessed as tumor growth inhibition at 25 mg/kg,po administrated once daily for 15 days relative to control; format: functional; conditions: CT26, 360 h, time 15 day, read-out: TGI

Sequence of Mitogen-activated protein kinase kinase kinase kinase 1 (Q92918 whole entry): as the sequence (Q92918 whole entry) above

Compound	DC50 [1] [nM]	Emax [2] [%]	other results
Cc1cc(-c2c[nH]c3ncc(-c4ccc(C5CCN(CCC6CCN(c7ccc8c(c7)C(=O)N(C7CCC(=O)NC7=O)C8=O)CC6)CC5)cc4)nc23)ccc1C(=O)N(C)C (stereo not drawn)	1060	58.5	
Cc1cc(-c2c[nH]c3ncc(-c4ccc(C5CCN(CC6CCN(c7ccc8c(c7)C(=O)N(C7CCC(=O)NC7=O)C8=O)C6)CC5)cc4)nc23)ccc1C(=O)N(C)C (stereo not drawn)	78.8	84.1	
Cc1cc(-c2c[nH]c3ncc(-c4ccc(C5CCN(C(=O)CCOc6cccc7c6C(=O)N(C6CCC(=O)NC6=O)C7=O)CC5)cc4)nc23)ccc1C(=O)N(C)C (stereo not drawn)	> 10000	6.7	
Cc1cc(-c2c[nH]c3ncc(-c4ccc(C5CCN(C6CN(C(=O)CNc7cccc8c7C(=O)N(C7CCC(=O)NC7=O)C8=O)C6)CC5)cc4)nc23)ccc1C(=O)N(C)C (stereo not drawn)	> 10000	22.7	
Cc1cc(-c2c[nH]c3ncc(-c4ccc(C5CCN(CC6CCN(C7CN(c8ccc9c(c8)C(=O)N(C8CCC(=O)NC8=O)C9=O)C7)CC6)CC5)cc4)nc23)ccc1C(=O)N(C)C (stereo not drawn)	> 10000	38	
Cc1cc(-c2c[nH]c3ncc(-c4ccc(C5CCN(C6CN(CC7CCN(c8ccc(N9CCC(=O)NC9=O)c(C)c8)CC7)C6)CC5)cc4)nc23)ccc1C(=O)N(C)C	127	79.3	
Cc1cc(-c2c[nH]c3ncc(-c4ccc(C5CCN(C(=O)CNc6cccc7c6C(=O)N(C6CCC(=O)NC6=O)C7=O)CC5)cc4)nc23)ccc1C(=O)N(C)C (stereo not drawn)	> 10000	0.1	
Cc1cc(-c2c[nH]c3ncc(-c4ccc(C5CCN(CC6CCN(c7ccc8c(c7)C(=O)N(C7CCC(=O)NC7=O)C8=O)CC6)CC5)cc4)nc23)ccc1C(=O)N(C)C (stereo not drawn)	420	84.1	
Cc1cc(-c2c[nH]c3ncc(-c4ccc(C5CCN(C6CN(C(=O)C7CCN(c8ccc(C(=O)NC9CCC(=O)NC9=O)cc8)CC7)C6)CC5)cc4)nc23)ccc1C(=O)N(C)C (stereo not drawn)	> 10000	24.2	
Cc1cc(-c2c[nH]c3ncc(-c4ccc(C5CCN(C(=O)CCOCCOCCOc6cccc7c6C(=O)N(C6CCC(=O)NC6=O)C7=O)CC5)cc4)nc23)ccc1C(=O)N(C)C (stereo not drawn)	245	56.6	half-life [3]: 2.3 h; Tmax [4]: 0.5 h; Cmax [5]: 118 ng/mL; AUC(0-t) at 24 h [6]: 187 ng·h/mL; MRT [7]: 3.6 h
Cc1cc(-c2c[nH]c3ncc(-c4ccc(C5CCN(C6CN(C(=O)Cc7ccc(NC8CCC(=O)NC8=O)cc7)C6)CC5)cc4)nc23)ccc1C(=O)N(C)C (stereo not drawn)	> 10000	38.5	
Cc1cc(F)c(Nc2nc(-c3ccc4c(c3)N(C3CC(N5CCCCC5)C3)C(=O)C43CCN(CCOCCOCCOCCOCCOCCOCCOCCNc4cccc5c4C(=O)N(C4CCC(=O)NC4=O)C5=O)CC3)cc3ncn(C(C)C)c23)cc1C(=O)NC(C)C (stereo not drawn)			Emax [8]: > 65%
Cc1cc(-c2c[nH]c3ncc(-c4cc(C)c5c(c4)CN(C)CC5)nc23)ccc1C(=O)N(C)C			Activity (T-cell line): 34.15%; Activity (Jurkat [9]): Active; Activity (Jurkat [10]): Active; pIC50 [11]: 8.24; inhibition in vivo at 25 mg/kg (CT26): 16.5%
Cc1cc(-c2c[nH]c3ncc(-c4ccc(C5CCN(C(=O)C6CN(c7ccc8c(c7)C(=O)N(C7CCC(=O)NC7=O)C8=O)C6)CC5)cc4)nc23)ccc1C(=O)N(C)C (stereo not drawn)	> 10000	42.6	
Cc1cc(-c2c[nH]c3ncc(-c4ccc(C5CCN(C6CN(C(=O)C7CCN(c8ccc(NC9CCC(=O)NC9=O)cc8)CC7)C6)CC5)cc4)nc23)ccc1C(=O)N(C)C (stereo not drawn)	> 10000	41.4	
Cc1cc(-c2c[nH]c3ncc(-c4ccc(C5CCN(C(=O)C6CCN(c7ccc8c(c7)C(=O)N(C7CCC(=O)NC7=O)C8=O)CC6)CC5)cc4)nc23)ccc1C(=O)N(C)C (stereo not drawn)	1750	63.6	
Cc1cc(-c2c[nH]c3ncc(-c4ccc(C5CCN(C(=O)CCNc6cccc7c6C(=O)N(C6CCC(=O)NC6=O)C7=O)CC5)cc4)nc23)ccc1C(=O)N(C)C (stereo not drawn)	962	63.6	
Cc1cc(-c2c[nH]c3ncc(-c4ccc(C5CCN(C6CN(C(=O)C7CN(c8ccc9c(c8)C(=O)N(C8CCC(=O)NC8=O)C9=O)C7)C6)CC5)cc4)nc23)ccc1C(=O)N(C)C (stereo not drawn)	> 10000	39.4	
Cc1cc(-c2c[nH]c3ncc(-c4ccc(C5CCN(C6CCN(c7ccc8c(c7)C(=O)N(C7CCC(=O)NC7=O)C8=O)C6)CC5)cc4)nc23)ccc1C(=O)N(C)C (stereo not drawn)	94	76.6	
Cc1cc(-c2c[nH]c3ncc(-c4ccc(C5CCN(C6CN(c7cc8c(cc7F)C(=O)N(C7CCC(=O)NC7=O)C8=O)C6)CC5)cc4)nc23)ccc1C(=O)N(C)C (stereo not drawn)	78.8	84.2	
Cc1cc(-c2c[nH]c3ncc(-c4ccc(N5CCN(CCC6CCN(c7ccc8c(c7)C(=O)N(C7CCC(=O)NC7=O)C8=O)CC6)CC5)cc4)nc23)ccc1C(=O)N(C)C (stereo not drawn)	> 10000	48.2	
Cc1cc(-c2c[nH]c3ncc(-c4ccc(C5CCN(C6CN(C7CN(c8ccc9c(c8)C(=O)N(C8CCC(=O)NC8=O)C9=O)C7)C6)CC5)cc4)nc23)ccc1C(=O)N(C)C (stereo not drawn)	295	58.1	
Cc1cc(-c2c[nH]c3ncc(-c4ccc(C5CCN(C6CN(C(=O)C7CCN(c8ccc9c(c8)C(=O)N(C8CCC(=O)NC8=O)C9=O)CC7)C6)CC5)cc4)nc23)ccc1C(=O)N(C)C (stereo not drawn)	> 10000	30.1	

Now from value to compound, other results behind:

DC50 [1] [nM]	Emax [2] [%]	Compound	other results
28.2	68.3	Cc1cc(-c2c[nH]c3ncc(-c4ccc(N5CCN(C6CN(c7ccc8c(c7)C(=O)N(C7CCC(=O)NC7=O)C8=O)C6)CC5)cc4)nc23)ccc1C(=O)N(C)C (stereo not drawn)	
> 10000	22.3	Cc1cc(-c2c[nH]c3ncc(-c4ccc(N5CCN(c6ccc7c(c6)C(=O)N(C6CCC(=O)NC6=O)C7=O)CC5)cc4)nc23)ccc1C(=O)N(C)C (stereo not drawn)	
152	64.9	Cc1cc(-c2c[nH]c3ncc(-c4ccc(C5CCN(C6CN(c7cccc8c7C(=O)N(C7CCC(=O)NC7=O)C8=O)C6)CC5)cc4)nc23)ccc1C(=O)N(C)C (stereo not drawn)	
134	94.6	Cc1cc(-c2c[nH]c3ncc(-c4ccc(N5CCN(CC6CN(c7ccc8c(c7)C(=O)N(C7CCC(=O)NC7=O)C8=O)C6)CC5)cc4)nc23)ccc1C(=O)N(C)C (stereo not drawn)	half-life [3]: 4.86 h; Tmax [4]: 3 h; Cmax [5]: 1500 ng/mL; AUC(0-t) at 24 h [6]: 16000 ng·h/mL; MRT [7]: 6.84 h
33.9	59.9	Cc1cc(-c2c[nH]c3ncc(-c4ccc(N5CCN(CC6CCN(c7ccc8c(c7)C(=O)N(C7CCC(=O)NC7=O)C8=O)CC6)CC5)cc4)nc23)ccc1C(=O)N(C)C (stereo not drawn)	half-life [3]: 16.7 h; Tmax [4]: 4 h; Cmax [5]: 636 ng/mL; AUC(0-t) at 24 h [6]: 9970 ng·h/mL; MRT [7]: 24.6 h
> 10000	2.8	Cc1cc(-c2c[nH]c3ncc(-c4ccc(C5CCN(c6cccc7c6C(=O)N(C6CCC(=O)NC6=O)C7=O)CC5)cc4)nc23)ccc1C(=O)N(C)C (stereo not drawn)	
246	56.6	Cc1cc(-c2c[nH]c3ncc(-c4ccc(N5CCN(CC6CCN(c7ccc8c(c7)C(=O)N(C7CCC(=O)NC7=O)C8=O)C6)CC5)cc4)nc23)ccc1C(=O)N(C)C (stereo not drawn)	
> 10000	3.4	Cc1cc(-c2c[nH]c3ncc(-c4ccc(C5CCN(c6ccc7c(c6)C(=O)N(C6CCC(=O)NC6=O)C7=O)CC5)cc4)nc23)ccc1C(=O)N(C)C (stereo not drawn)	
> 10000	37.9	Cc1cc(-c2c[nH]c3ncc(-c4ccc(N5CCN(c6cccc7c6C(=O)N(C6CCC(=O)NC6=O)C7=O)CC5)cc4)nc23)ccc1C(=O)N(C)C (stereo not drawn)	half-life [3]: 4.4 h; Tmax [4]: 1 h; Cmax [5]: 602 ng/mL; AUC(0-t) at 24 h [6]: 4470 ng·h/mL; MRT [7]: 6.8 h
99.2	56.1	Cc1cc(-c2c[nH]c3ncc(-c4ccc(N5CCN(C6CCN(c7ccc8c(c7)C(=O)N(C7CCC(=O)NC7=O)C8=O)CC6)CC5)cc4)nc23)ccc1C(=O)N(C)C (stereo not drawn)	

From ChEMBL document CHEMBL5576124, “Discovery of an Exceptionally Orally Bioavailable and Potent HPK1 PROTAC with Enhancement of Antitumor Efficacy of Anti-PD-L1 Therapy” (J Med Chem, 2024)
